Assay results reported in US20260217659A1, “COMPOUNDS, COMPOSITIONS AND USES THEREOF IN THE TREATMENT AND PREVENTION OF DISEASES AND CONDITIONS ASSOCIATE WITH OR AGGRAVATED BY IMPAIRED MITOPHAGY OR OXIDATIVE STRESS” (Yissum Research Development Company of The Hebrew …, priority 2023, published 2026).

Legend:
[1] = test system: Huh-7 cells; assay: Huh-7 cell survival, MTT assay; format: cell-based, human; details: 72 h
Description: Huh-7 cells (2000 per well, in 96-wells plate) were treated with 100 μM of each compound. Cell viability was measured by MTT assay after 72 h. Asterisks represent a comparison to vehicle control. ****p<0.0001. N=3 biological repeats. Error bars represent SEM.
(§1) FIGS. 5A-5D show how ST-480 and CQ kill Huh-7 cells in a dose-dependent manner. (5A) Surviving curves in 200 mM paraquat (PQ). Worms were treated with ST-480 at the indicated concentrations or with the vehicle as a control for 48 h. Afterward, they were treated with 200 mM PQ, and their survival was measured after 3 and 6 h. N=6 biological repeats, P values are indicated (compared with the vehicle control). Bar graphs displaying the survival of Huh-7 cells in different doses of CQ (4B) and ST-480 (5C) —the experimental setup was similar to that described in FIG. 1. Asterisks represent a comparison to vehicle control. N=3 biological repeats. (5D) Bar graph showing the combined effect of ST-480 and CQ on Huh-7 cells' survival after 72 h. *p<0.05, ***p<0.001, ****p<0.0001. N=3 biological repeats. *Error bars represent SEM.
ST-480, is one of the diamine compounds of the invention that inhibits liver cancer cell viability. […] Therefore, the activity of the polyamine compound of the invention in liver cancer therapy. To explore this, the inventors screened the effect of eight new compounds. In addition, the effect of two compounds in the context of lifespan, health-span, and proteotoxicity, i.e., the diamines VL-004 and VL-850 were examined, and the natural polyamine spermidine (Spd). Huh-7 cells (derived from hepatocellular carcinoma of a person) were exposed to 100 μM of each compound and examined their survival after 72 h using an MTT assay.
Chloroquine (CQ) has been used safely to treat malaria and to suppress autophagic flux. Moreover, as indicated above, it induces DNA damage and apoptosis in cancer cells. The effect of different CQ concentrations on Huh-7 cells' survival after 72 h were tested. In parallel, dose-response experiments testing ST-480 toxicity in these cells were performed.

[2] = test system: Hep-3B cells; assay: Hep-3B cell survival; format: cell-based, human; details: single agent, 72 h
Description: (§2) FIGS. 6A-6E show how ST-480 and CQ effectively kill Hep-3B cancer cells. Bar graphs displaying the effects of ST-480 (6A) and CQ (6B) and their combined effect 6C) on Hep-3B cells' survival after 72 h—the experimental setup was similar Asterisks represent a comparison to vehicle control (6A and 6B) or towards (the same CQ concentration under vehicle treatment conditions (5C). *p<0.05, **p<0.01, ***p<0.001, ****p<0.0001. N=3 biological repeats. (5D) Representative images show the state of Hep-3B cells treated as described in (6C). Scale bar: 200 μm. (5E) BEAS-2B cells are not sensitive to ST-480, ns-non-significance. N-3. Error bars represent SEM.
(§3) To strengthen these conclusions, the impact of ST-480 and CQ was tested on another liver cancer cell line, namely Hep-3B′ the Hep-3B cell line originated from a person with primary hepatocellular carcinoma (HCC). […] In addition, the combined effect of ST-480 and CQ on Hep-3B survival was tested. […] In this respect, it should be emphasized that ST-480 was not toxic to non-cancer cells.

[3] = test system: BEAS-2B cells; assay: BEAS-2B non-cancer cell survival; format: cell-based; details: 70 µM and 100 μM, 72 h
Description: as §2, §3

[4] = test system: Hep-3B cells; assay: Mitophagy: colocalization of mitochondria and lysosomes in Hep-3B cells; format: cell-based, human; details: 100 μM, 6 h
Description: FIGS. 7A-7B show how ST-480 induces mitophagy. (7A) Colocalization of mitochondria and lysosome. Arrowheads indicate representative colocalization. The inset represents an eight-fold enlargement-scale bar: 50 μm. (7B) Colocalization quantification. N=3, ≥412 cells per treatment. *p<0.05, Error bars represent SEM.
ST-480 induces mitophagy in Hep-3B cells. To explore whether ST-480 induces mitophagy, Hep-3B cells were exposed to 100 μM ST-480 or vehicle control for 6 h. To measure mitophagy, the colocalization of mitochondria and lysosomes were quantified using specific mitochondrial and lysosomal dyes. In addition, nuclei were stained using a DNA dye—For this, the Cytopainter ab139487 kit, was used.

[5] = test system: C. elegans; assay: Survival of worms in 200 mM paraquat (oxidative stress resistance); format: in vivo; details: 48 h treatment, then 200 mM paraquat, survival after 3 and 6 h
Description: as §1
Chloroquine (CQ) enhances ST-480 cytotoxicity.

[6] = test system: U87 MG cells; assay: XTT proliferation inhibition, U87 MG; format: cell-based; details: Homo sapiens, U-87 MG, glioma (GBM), 72 h
Description: (§4) Cell lines: PANC-1. Organism: Homo sapiens, human/Tissue: Pancreas; Duct/Disease: Epithelioid Carcinoma HUH7. Organism: Homo sapiens, human/Tissue: Liver/Disease: Carcinoma; Hepatocellular NCI-H69. Organism: Homo sapiens, human/Tissue: Lung/Disease: NSCL U87 MG. Organism: Homo sapiens, human/Tissue: Brain/Disease: Glioma
(§5) PANC-1, HUH7, NCI-H69 and U87 MG cells are plated in one 96 well plate each, in their culture medium, at 7500 cells/well. Cells are allowed to attach for 16-24 hours at 37° C., 5% CO2. Thereafter, culture medium is discarded, and fresh culture medium is added to the cells, supplemented with elevating ST-1944 concentrations: 0.4, 2, 10 and 50 μM, 3 wells of each concentration (triplicates). The cells are incubated another 72±2 hours at 37° C., 5% CO2. At the end of incubation period, medium is discarded and 100 μL fresh culture medium is added to the cells along with 50 μL XTT reagent. The OD is measured in a plate reader once Vehicle treated cells are reach the range of 0.5-1.5 OD at 450 nm wavelength.
(§6) PANC-1 and HUH7culture medium: DMEM Medium (4.5 g/L glucose), supplemented with 10% FBS (heat inactivated), 2 mM L-Glutamine, and 1% of Pen/Strep Solution. U87 MG and NCI-H69 culture medium: EMEM Medium, supplemented with 10% FBS (heat inactivated), 2 mM L-Glutamine, and 1% of Pen/Strep Solution. […]

[7] = test system: HUH7 cells; assay: XTT proliferation inhibition, HUH7; format: cell-based; details: Homo sapiens, Huh-7, HUH7, liver cancer (HCC), 72 h
Description: as §4, §5, §6

[8] = test system: NCI-H69 cells; assay: XTT proliferation inhibition, NCI-H69; format: cell-based; details: Homo sapiens, NCI-H69, lung cancer (NSCLC), 72 h
Description: as §4, §5, §6

[9] = test system: PANC-1 cells; assay: XTT proliferation inhibition, PANC-1; format: cell-based; details: Homo sapiens, Panc-1, pancreatic cancer, 72 h
Description: as §4, §5, §6

Structure (SMILES) | Huh-7 cells' survival, dose response ([1]; CQ at 7, 8, and 10 μM) | Hep-3B cells' survival [2] | cell death of non-cancer BEAS-2B cells [3] | mitophagy (colocalization of mitochondria and lysosomes) [4] | resistance to oxidative stress [5] | Huh-7 cell survival ([1]; 100 μM, MTT assay) | Huh-7 cells' survival, dose response ([1]; ST-480 at 60, 80, and 100 μM) | IC50 [6] | IC50 [7] | IC50 [8] | IC50 [9]
CCN(CC)CCCC(C)Nc1ccnc2cc(Cl)ccc12 (stereo not drawn) [CQ, chloroquine, reference compound] | significantly decreased cells' survival | sensitive to both ST-480 and CQ in a dose-dependent manner |  |  |  |  |  |  |  |  | 
NCCCCc1ccccc1CCCCN [ST-480] |  | sensitive to both ST-480 and CQ in a dose-dependent manner | did not observe a significant cell death | induces mitophagy in a significant manner | confer resistance to oxidative stress | significantly decreased Huh-7 cell survival | significantly decreased cells' survival |  |  |  | 
Cn1ccnc1SCCCCc1ccccc1CCCCSc1nccn1C [ST-1944] |  |  |  |  |  |  |  | 10 µM | 2 µM | 10 µM | 1 µM
